Measurements from publication PMC8381290 (Journal of medicinal chemistry, 2021).

How the values were obtained:
RPE65 [1] = target: T1, RPE65 (Bos taurus, UniProt Q28175); conditions: RPE65 inhibition; cited from earlier work
RPE65 [2] = target: T1, RPE65; test: RPE65 retinoid isomerase activity assay; conditions: ratio of IC50 values
[3] = format: in vivo, mouse; conditions: for distribution within ocular tissue / accumulation in the eye compared with emixustat: single 380 nmol i.p. dose
[4] = 3 h after single 380 nmol i.p. dose

T1 sequence (Q28175 whole entry): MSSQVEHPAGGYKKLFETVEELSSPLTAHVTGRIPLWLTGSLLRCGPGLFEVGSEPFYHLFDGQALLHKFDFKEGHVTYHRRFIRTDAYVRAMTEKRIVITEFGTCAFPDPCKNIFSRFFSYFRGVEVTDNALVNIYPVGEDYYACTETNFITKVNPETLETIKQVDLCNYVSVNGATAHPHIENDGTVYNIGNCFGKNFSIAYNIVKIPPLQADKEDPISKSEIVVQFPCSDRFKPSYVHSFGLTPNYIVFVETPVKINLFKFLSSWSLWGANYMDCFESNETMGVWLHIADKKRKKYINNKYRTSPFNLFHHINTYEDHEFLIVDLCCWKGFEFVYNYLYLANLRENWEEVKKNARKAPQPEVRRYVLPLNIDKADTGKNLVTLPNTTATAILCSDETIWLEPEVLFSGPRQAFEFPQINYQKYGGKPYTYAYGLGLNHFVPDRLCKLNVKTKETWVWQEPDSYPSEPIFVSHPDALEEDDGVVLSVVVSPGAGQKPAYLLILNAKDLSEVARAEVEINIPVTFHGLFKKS

| SMILES | distribution within ocular tissue [3] | initial plasma (serum) level [4] | accumulation in the eye compared with emixustat [3] | further results |
| --- | --- | --- | --- | --- |
| CCCC(CCC)COc1cccc([C@H](O)CCN)c1 [(R)-MB-004] | – | – | – | IC50 (RPE65 [1]): 106 ± 16 nM |
| CCCC(CCC)COc1cc([C@H](O)CCN)ccc1F [Compound 24, (R)-3-Amino-1-(4-fluoro-3-((2-propylpentyl)oxy)phenyl)propan-1-ol] | poorest distribution within ocular tissue | highest initial plasma levels | – | inhibitory potency relative to racemic emixustat (RPE65 [2]): 3 times |
| NCCC(O)c1ccc(F)c(OCC2CCCCC2)c1 (stereo not shown) [Compound 49, 3-Amino-1-(3-(cyclohexylmethoxy)-4-fluorophenyl)propan-1-ol] | poorest distribution within ocular tissue | highest initial plasma levels | – | – |
| NCCC(O)c1cccc(OCC2CCC(F)(F)CC2)c1 (stereo not shown) [Compound 57, 3-Amino-1-(3-((4,4-difluorocyclohexyl)methoxy)phenyl) propan-1-ol] | – | – | accumulate more | eye amount relative to compounds 24 and 49 ([3]; day 7 after single i.p. dose): 10 times; eye amount relative to emixustat ([3]; day 7 after single i.p. dose): 5 times |
| [2H]C([2H])(N)CC(O)c1cccc(OCC2CCC(F)(F)CC2)c1 (stereo not shown) [Compound 59, 3-Amino-1-(3-((4,4-difluorocyclohexyl)methoxy)phenyl)propan-3,3-d2-1-ol] | – | – | accumulate more | – |
